Results on 22 molecules are retold here after US8748461B2, “Metalloenzyme inhibitor compounds” (Viamet Pharmaceuticals, Inc., priority 2011, dated 2014).

Structures are written as SMILES.

The subject of assay [1] is Septoria tritici (ATCC 26517). The assay is described as follows: Minimum Inhibitory Concentration (MIC) vs. Septoria tritici. It counts as cell-based. Conditions: 50% reduction in growth of S. tritici, 22° C., seven days; for MIC: Zymoseptoria tritici, ATCC26517, 168 h, read-out: Septoria Rating (MIC). As to the method:
C. Minimum Inhibitory Concentration (MIC) vs. Septoria tritici Compounds were assessed for their ability to inhibit the growth of a common strain of the fungal plant pathogen Septoria tritici (ATCC 26517) using a procedure based on a Clinical and Laboratory Standards Institute (CLSI) microdilution assay protocol for filamentous fungi. Stock solutions of the test compounds and standards were prepared in DMSO at 6400 μg/mL. Each stock solution was used to prepare a 2-fold dilution series ranging from 16 to 0.016 μg/mL (total of 11 compound concentrations) in RPMI-1640 (Roswell Park Memorial Institute) medium containing 3-(N-morpholino)propanesulfonic acid (MOPS) buffer and 2% DMSO. A 100 μL aliquot of the dilutions was added to columns 1 (16 μg/mL compound) through 11 (0.016 μg/mL compound) of a 96-well microtiter plate. This format was replicated in a second row of the microtiter plate. Thus, each microtiter plate could include 11 concentrations of four test or control compounds replicated twice. A 100 μL aliquot of RPMI-1640/MOPS/2% DMSO medium was added to column 12 (no compound control) of the microtiter plate. A fresh culture of S. tritici was used to prepare a solution of approximately 5×10^4 colony-forming units per milliliter (cfu/mL) in RPMI/MOPS medium without DMSO. A 100 μL aliquot of this solution was added to all 96 wells in the microtiter plate. […] The assay plates were incubated at 22° C. for seven days in the dark without shaking. […] In each case of Table 3, the Septoria rating scale is as follows: […]

Assay [2] relates to Puccinia recondita tritici = Puccinia triticina. The experiment in a line: Fungicidal activity vs. leaf rust on wheat plants. The assay is classed as in vivo. The following applies: 50 ppm spray on wheat (Yuma), inoculated the following day, evaluated 7-9 days later; for pest or weed control at 50 ppm: read-out: Puccinia Rating (% Disease Control @ 50 ppm). An excerpt: D. Evaluation of Fungicidal Activity Vs. Leaf Rust (Causal Agent Puccinia recondita Tritici=Puccinia triticina; Bayer code PUCCRT). […] Each pot contained 3-8 seedlings. These plants were sprayed until wet with the formulated test compounds. The compounds were formulated at 50 ppm in 10 vol. % acetone plus 90 vol. % Triton X water (deionized water 99.99 wt %+0.01 wt % Triton X100), giving a “formulated test compound.” Formulated test compounds were applied to plants using a turn table sprayer fitted with two opposing air atomization nozzles which delivered approximately 1500 L/ha of spray volume. On the following day, the leaves were inoculated with an aqueous spore suspension of Puccinia recondita tritici and the plants were kept in high humidity overnight to permit spores to germinate and infect the leaf. The plants were then transferred to a greenhouse until disease developed on untreated control plants. Disease severity was evaluated 7-9 days later, depending on the speed of disease development. In each case of Table 3, the Puccinia rating scale is as follows: […]

For `OC(Cn1cnnn1)(c1ccc(F)cc1F)C(F)(F)c1ccc(Oc2ccc(Br)cn2)cn1` (centres unmarked) [Compound 106, 1-(5-((5-bromopyridin-2-yl)oxy)pyridin-2-yl)-2-(2,4-difluorophenyl)-1,1-difluoro-3-(1H-tetrazol-1-yl)propan-2-ol], the MIC in assay [1] was ≤ 0.5 µg/mL. In addition, the pest or weed control at 50 ppm in assay [2] was in the range of 80 to 100%.
The matching figures for `OC(Cn1cnnn1)(c1ccc(F)cc1F)C(F)(F)c1ccc(Oc2ccc(C(F)(F)F)cn2)cn1` (centres unmarked) [Compound 94, 2-(2,4-difluorophenyl)-1,1-difluoro-3-(1H-tetrazol-1-yl)-1-(5-((5-(trifluoromethyl)pyridin-2-yl)oxy)pyridin-2-yl)propan-2-ol]: ≤ 0.5 µg/mL and 80 to 100%.
For the molecule `OC(Cn1cnnn1)(c1ccc(F)cc1F)C(F)(F)c1ccc(OCc2ccc(F)cc2F)cn1` (centres unmarked) [Compound 2, 1-(5-(2,4-Difluorobenzyloxy)pyridin-2-yl)-2-(2,4-difluorophenyl)-1,1-difluoro-3-(1H-tetrazol-1-yl)propan-2-ol], the MIC in assay [1] is ≤ 0.5 µg/mL. In addition, in assay [2], the pest or weed control at 50 ppm is 80 to 100%.
The matching figures for `N#Cc1cccc(COc2ccc(C(F)(F)C(O)(Cn3cnnn3)c3ccc(F)cc3F)nc2)c1F` (centres unmarked) [Compound 67, 3-(((6-(2-(2,4-Difluorophenyl)-1,1-difluoro-2-hydroxy-3-(1H-tetrazol-1-yl)propyl)pyridin-3-yl)oxy)methyl)-2-fluorobenzonitrile]: ≤ 0.5 µg/mL and 80 to 100%.
The matching figures for `OC(Cn1cnnn1)(c1ccc(F)cc1F)C(F)(F)c1ccc(OCc2ccc(C(F)(F)F)nc2)cn1` (centres unmarked) [Compound 115, 2-(2,4-difluorophenyl)-1,1-difluoro-3-(1H-tetrazol-1-yl)-1-(5-((6-(trifluoromethyl)pyridin-3-yl)methoxy)pyridin-2-yl)propan-2-ol]: ≤ 0.5 µg/mL and 80 to 100%.
The matching figures for `OC(Cn1cnnn1)(c1ccc(F)cc1F)C(F)(F)c1ccc(OCc2cccs2)cn1` (centres unmarked) [Compound 49, 2-(2,4-Difluorophenyl)-1,1-difluoro-3-(1H-tetrazol-1-yl)-1-(5-(thiophen-2-ylmethoxy)pyridin-2-yl)propan-2-ol]: ≤ 0.5 µg/mL and 80 to 100%.
On to `CC(Oc1ccc(C(F)(F)C(O)(Cn2cnnn2)c2ccc(F)cc2F)nc1)C(F)(F)F` (centres unmarked) [Compound 47, 2-(2,4-Difluorophenyl)-1,1-difluoro-3-(1H-tetrazol-1-yl)-1-(5-((1,1,1-trifluoropropan-2-yl)oxy)pyridin-2-yl)propan-2-ol], for which the MIC in assay [1] is ≤ 0.5 µg/mL. The pest or weed control at 50 ppm in assay [2] lay in the range of 80 to 100%.
The corresponding values for `OC(Cn1cnnn1)(c1ccc(F)cc1F)C(F)(F)c1ccc(Oc2ncc(Br)cn2)cn1` (centres unmarked) [Compound 99, 1-(5-((5-bromopyrimidin-2-yl)oxy)pyridin-2-yl)-2-(2,4-difluorophenyl)-1,1-difluoro-3-(1H-tetrazol-1-yl)propan-2-ol] are ≤ 0.5 µg/mL and 80 to 100%.
The matching figures for `CC(C)COc1ccc(C(F)(F)C(O)(Cn2cnnn2)c2ccc(F)cc2F)nc1` (centres unmarked) [Compound 43, 2-(2,4-Difluorophenyl)-1,1-difluoro-1-(5-isobutoxypyridin-2-yl)-3-(1H-tetrazol-1-yl)propan-2-ol]: ≤ 0.5 µg/mL and 80 to 100%.
The matching figures for `N#Cc1ccc(Oc2ccc(C(F)(F)C(O)(Cn3cnnn3)c3ccc(F)cc3F)nc2)nc1` (centres unmarked) [Compound 93, 6-((6-(2-(2,4-difluorophenyl)-1,1-difluoro-2-hydroxy-3-(1H-tetrazol-1-yl)propyl)pyridin-3-yl)oxy)nicotinonitrile]: ≤ 0.5 µg/mL and 80 to 100%.
`N#Cc1ccc(Oc2ccc(C(F)(F)C(O)(Cn3cnnn3)c3ccc(Cl)cc3F)nc2)cc1F` (centres unmarked) [Compound 81, 4-((6-(2-(4-Chloro-2-fluorophenyl)-1,1-difluoro-2-hydroxy-3-(1H-tetrazol-1-yl)propyl)pyridin-3-yl)oxy)-2-fluorobenzonitrile]: in assay [1], the MIC was ≤ 0.5 µg/mL. The pest or weed control at 50 ppm in assay [2] fell in the range of 80 to 100%.
The matching figures for `OC(Cn1cnnn1)(c1ccc(F)cc1F)C(F)(F)c1ccc(Oc2ccc(Cl)cn2)cn1` (centres unmarked) [Compound 95, 1-(5-((5-chloropyridin-2-yl)oxy)pyridin-2-yl)-2-(2,4-difluorophenyl)-1,1-difluoro-3-(1H-tetrazol-1-yl)propan-2-ol]: ≤ 0.5 µg/mL and 80 to 100%.
The corresponding values for `OC(Cn1cnnn1)(c1ccc(F)cc1F)C(F)(F)c1ccc(Oc2cccc(Cl)c2)cn1` (centres unmarked) [Compound 84, 1-(5-(3-Chlorophenoxy)pyridin-2-yl)-2-(2,4-difluorophenyl)-1,1-difluoro-3-(1H-tetrazol-1-yl)propan-2-ol] are ≤ 0.5 µg/mL and 80 to 100%.
The corresponding values for `CO/N=C/c1ccc(Oc2ccc(C(F)(F)C(O)(Cn3cnnn3)c3ccc(F)cc3F)nc2)nc1` (centres unmarked) [Compound 102, (E)-6-((6-(2-(2,4-difluorophenyl)-1,1-difluoro-2-hydroxy-3-(1H-tetrazol-1-yl)propyl)pyridin-3-yl)oxy)nicotinaldehyde O-methyl oxime] are ≤ 0.5 µg/mL and 80 to 100%.
In the case of `OC(Cn1cnnn1)(c1ccc(F)cc1F)C(F)(F)c1ccc(OCc2ccccc2)cn1` (centres unmarked) [Compound 30, 1-(5-(Benzyloxy)pyridin-2-yl)-2-(2,4-difluorophenyl)-1,1-difluoro-3-(1H-tetrazol-1-yl)propan-2-ol], in assay [1], the “Septoria Rating (MIC)” value is “A (≦0.5)”. In addition, in assay [2], the “Puccinia Rating (% Disease Control @ 50 ppm)” value was “A (80-100)”.
`OC(Cn1cnnn1)(c1ccc(F)cc1F)C(F)(F)c1ccc(OCC(F)c2ccccc2)cn1` (centres unmarked) [Compound 123, 2-(2,4-difluorophenyl)-1,1-difluoro-1-(5-(2-fluoro-2-phenylethoxy)pyridin-2-yl)-3-(1H-tetrazol-1-yl)propan-2-ol]: in assay [1], the minimal inhibitory concentration (MIC) was ≤ 0.5 µg/mL. Further, in assay [2], the pest or weed control at 50 ppm fell in the range of 80 to 100%.
The corresponding values for `OC(Cn1cnnn1)(c1ccc(F)cc1F)C(F)(F)c1ccc(OCc2ccc(Cl)cn2)cn1` (centres unmarked) [Compound 113, 1-(5-((5-chloropyridin-2-yl)methoxy)pyridin-2-yl)-2-(2,4-difluorophenyl)-1,1-difluoro-3-(1H-tetrazol-1-yl)propan-2-ol] are ≤ 0.5 µg/mL and 80 to 100%.
The corresponding values for `OC(Cn1cnnn1)(c1ccc(F)cc1F)C(F)(F)c1ccc(Oc2ccc(F)c(F)c2)cn1` (centres unmarked) [Compound 86, 1-(5-(3,4-Difluorophenoxy)pyridin-2-yl)-2-(2,4-difluorophenyl)-1,1-difluoro-3-(1H-tetrazol-1-yl)propan-2-ol] are ≤ 0.5 µg/mL and 80 to 100%.
With `OC(Cn1cnnn1)(c1ccc(F)cc1F)C(F)(F)c1ccc(OCc2ccccc2F)cn1` (centres unmarked) [Compound 46, 2-(2,4-Difluorophenyl)-1,1-difluoro-1-(5-((2-fluorobenzyl)oxy)pyridin-2-yl)-3-(1H-tetrazol-1-yl)propan-2-ol], the MIC in assay [1] was ≤ 0.5 µg/mL. Moreover, in assay [2], the pest or weed control at 50 ppm fell in the range of 80 to 100%.
The corresponding values for `OC(Cn1cnnn1)(c1ccc(F)cc1F)C(F)(F)c1ccc(Oc2ncc(C(F)(F)F)cn2)cn1` (centres unmarked) [Compound 105, 2-(2,4-difluorophenyl)-1,1-difluoro-3-(1H-tetrazol-1-yl)-1-(5-((5-(trifluoromethyl)pyrimidin-2-yl)oxy)pyridin-2-yl)propan-2-ol] are ≤ 0.5 µg/mL and 80 to 100%.
The matching figures for `OC(Cn1cnnn1)(c1ccc(F)cc1F)C(F)(F)c1ccc(OCC2CC2)cn1` (centres unmarked) [Compound 39, 1-(5-(Cyclopropylmethoxy)pyridin-2-yl)-2-(2,4-difluorophenyl)-1,1-difluoro-3-(1H-tetrazol-1-yl)propan-2-ol]: ≤ 0.5 µg/mL and 80 to 100%.
The matching figures for `OC(Cn1cnnn1)(c1ccc(F)cc1F)C(F)(F)c1ccc(OCc2cc(F)cc(F)c2)cn1` (centres unmarked) [Compound 35, 1-(5-((3,5-Difluorobenzyl)oxy)pyridin-2-yl)-2-(2,4-difluorophenyl)-1,1-difluoro-3-(1H-tetrazol-1-yl)propan-2-ol]: ≤ 0.5 µg/mL and 80 to 100%.

As a reminder, the MIC is the lowest concentration that inhibits growth of the organism.
